Data reported in US10449223B2, “Use of dehydroeburicoic acid from Antrodia camphorata in the treatment or prevention of diabetes and hyperlipidemia” (priority 2016, dated 2019).

Assays:
SREBP2 = assay: Semiquantitative RT-PCR, liver tissue: SREBP2 mRNA; assay type: in vivo, C57BL/6J mice; conditions: STZ-induced diabetic mice; TT oral (10, 20, 40 mg/kg/day groups, dose not given)
Protocol: (§1) Total RNA from liver tissue was isolated with a Trizol Reagent (Molecular Research Center, Inc., Cincinnati, Ohio) according to the manufacturer's directions. The integrity of the extracted total RNA was examined by 2% agarose gel electrophoresis, and the RNA concentration was determined by the ultraviolet (UV) light absorbency at 260 nm and 280 nm (Spectrophotometer U-2800A, Hitachi). Total RNA (1 μg) was reverse transcribed to cDNA in a reaction mixture containing buffer, and 5 μL Moloney murine leukemia virus reverse transcriptase (Epicentre, Madison, Wis., USA). The polymerase chain reaction (PCR) was performed in a final 25 μL containing 1 U Blend Taq-Plus (TOYOBO, Japan), 1 μL of the RT first-strand cDNA product, 10 μM of each forward (F) and reverse (R) primer, 75 mM Tris-HCl (pH 8.3) containing 1 mg/L Tween 20, 2.5 mM dNTP, and 2 mM MgCl2. The products were run on 2% agarose gels and stained with ethidium bromide.

DGAT2 = assay: Semiquantitative RT-PCR, liver tissue: DGAT2 mRNA; assay type: in vivo, C57BL/6J mice; conditions: STZ-induced diabetic mice, 28 days, relative to CON group (so in the source)
Protocol: as §1

[1] = system: STZ-induced diabetic mice; assay: Histology of epididymal WAT and liver tissue in STZ-induced diabetic mice; assay type: in vivo, C57BL/6J mice; conditions: 28 days
Description: Parts of EWAT and liver tissue specimens were investigated as previously described.^31,32 Microscopic images were taken using a microscope (Olympus BX51, BX51, Olympus, Tokyo, Japan).

CPT1a = assay: Semiquantitative RT-PCR, liver tissue: CPT1a mRNA; assay type: in vivo, C57BL/6J mice; conditions: STZ-induced diabetic mice; TT oral (10, 20, 40 mg/kg/day groups, dose not given)
Protocol: as §1

PPARγ = assay: Western blotting: PPARγ in liver and adipose tissue of mice; conditions: STZ-induced diabetic mice, 28 days
Protocol: (§6) The study protocol was performed as previously described.^28 Diabetes was induced by intraperitoneal injection of streptozotocin (Sigma Chemical, St. Louis, Mo., USA) for 5 consecutive days. The dosage of STZ was 55 mg/kg (dissolved in 0.05 M cold sodium citrate buffer, pH 4.5). The normal control mice received only citrate buffer of the same volume.
(§7) During the experiment, all mice were fasted overnight, and blood was collected from the retro-orbital sinus. After dosing for 4 weeks, food was removed from the mice at night, and on the next day, the mice after 12 h of fasting were sacrificed. All of the individual tissues were collected and weighed, and parts of tissues were instantly frozen at −80° C. for later target gene analysis.
(§8) PPARα, PPARγ, and FAS proteins were performed by the liver and white adipose tissue of mice. Skeletal muscle from mice was subjected to GLUT4 expression level analysis, and the total membrane fractions were collected with buffer and determined using a described procedure. The protein contents of GLUT4, phospho-AMPK, and total AMPK were detected by Western blotting and determined as described.

GLUT4 [2] = assay: Western blotting: membrane GLUT4 in skeletal muscle of mice; conditions: STZ-induced diabetic mice, 28 days
Protocol: as §6, §7, §8

SREBP1c = assay: Semiquantitative RT-PCR, liver tissue: SREBP1c mRNA; assay type: in vivo, C57BL/6J mice; conditions: STZ-induced diabetic mice, 28 days, relative to CON group (so in the source)
Protocol: as §1

PPARα [3] = assay: Semiquantitative RT-PCR, liver tissue: PPARα mRNA; assay type: in vivo, C57BL/6J mice; conditions: STZ-induced diabetic mice, 28 days
Protocol: as §1

PPARα [4] = assay: Western blotting: PPARα in liver of mice; conditions: STZ-induced diabetic mice, 28 days
Protocol: as §6, §7, §8

[5] = system: STZ-induced diabetic mice; assay: Tissue weight, body weight and food intake in STZ-induced diabetic mice; assay type: in vivo, C57BL/6J mice; conditions: 28 days
Akt = assay: phospho-Akt (Ser473)/total Akt in C2C12 myotube cells (Western blot); assay type: cell-based
Protocol: (§2) C2C12 skeletal myoblasts (ATCC, CRL-1772) were maintained in growth media consisting of Dulbecco's modified Eagle's medium (DMEM) (Gibco BRL) supplemented with 10% fetal bovine serum (FBS) (Hyclone) and 100 U/mL penicillin/100 μg/mL streptomycin (Gibco BRL) and split 1:4 using 0.05% trypsin when 80% confluent. Myoblasts were diluted and placed in a 9 cm dish. Cells were cultured to achieve 80-90% confluency, and growth medium was changed as 2% FBS/DMEM every 24 h for 5-7 days.
(§3) Determination of GLUT4 and phospho-Akt (Ser^473)/Total Akt Proteins in Vitro: Differentiated C2C12 cells were serum starved in DMEM/BSA (2 h at 37° C.) prior to incubation either with test compounds (TT at 1, 5, 10, and 25 μg/mL) or with vehicle (DMSO containing saline, final concentration of DMSO=0.2%) for 30 min or with 100 nM insulin for 25 min.
(§4) Following treatment, cells were washed three times with ice-cold PBS and separated into two portions. A portion of the cells was subsequently lysed in RIPA buffer (50 mM Tris-HCl, pH 8, 150 mM NaCl, 1% NP-40, 0.5% sodium deoxycholate, 0.1% SDS) supplemented with complete protease inhibitor cocktail (Roche) and phosphatase inhibitors and then centrifuged at 20000 g for […].
Supernatant protein was collected and stored at −20° C. Another portion of cells was homogenized with buffer (250 mmol/L sucrose, 50 mmol/L Tris, and 0.2 mmol/L edetic acid, pH 7.4) at 4° C., as previously described. The homogenates were centrifuged at 9000 g for 10 min (4° C.). The pellet was suspended with 0.5 mL of homogenization buffer and then centrifuged, repeated three times. The three supernatants were collected, mixed, and centrifuged at 190000 g for 60 min (4° C.). […]
(§5) Protein concentration was determined via BCA assay (Pierce). Equal amounts of protein were then diluted four times in SDS sample buffer and subjected to SDS-PAGE and were detected by Western blotting with antibodies specific for Akt, phosph-Akt Ser^473, and GLUT4. The density blotting was analyzed using Alpha Easy FCsoftware (Alpha Innotech Corp., Randburg, South Africa).

GLUT4 [6] = assay: GLUT4 protein expression in C2C12 myotube cells (Western blot); assay type: cell-based
Protocol: as §2, §3, §4
Supernatant protein was collected and stored at −20° C. Another portion of cells was homogenized with buffer (250 mmol/L sucrose, 50 mmol/L Tris, and 0.2 mmol/L edetic acid, pH 7.4) at 4° C., as previously described. The homogenates were centrifuged at 9000 g for 10 min (4° C.). The pellet was suspended with 0.5 mL of homogenization buffer and then centrifuged, repeated three times. The three supernatants were collected, mixed, and centrifuged at 190000 g for 60 min (4° C.). The pellet was resuspended with 0.2 mL of homogenization buffer, stored at −20° C., and performed within membrane.
as §5

PEPCK = assay: Semiquantitative RT-PCR, liver tissue: PEPCK mRNA; assay type: in vivo, C57BL/6J mice; conditions: STZ-induced diabetic mice, 28 days, relative to CON group (so in the source)
Protocol: as §1

AMPK = assay: Western blotting: phospho-AMPK (Thr172)/total AMPK in skeletal muscle and liver of mice; conditions: STZ-induced diabetic mice, 28 days
Protocol: as §6, §7, §8

G6 Pase = assay: Semiquantitative RT-PCR, liver tissue: G6 Pase mRNA; assay type: in vivo, C57BL/6J mice; conditions: STZ-induced diabetic mice, 28 days, relative to CON group (so in the source)
Protocol: as §1

FAS = assay: Western blotting: FAS in liver and adipose tissue of mice; conditions: STZ-induced diabetic mice, 28 days
Protocol: as §6, §7, §8

C=C(CC[C@@H](C(=O)O)[C@H]1CC[C@@]2(C)C3=CC[C@H]4C(C)(C)[C@@H](O)CC[C@]4(C)C3=CC[C@]12C)C(C)C [TT, dehydroeburicoic acid]
SREBP2 mRNA levels in liver (SREBP2): decreased | mRNA levels of DGAT2 in liver (DGAT2; TT 10 mg/kg/day oral): decreased | mRNA levels of DGAT2 in liver (DGAT2; TT 20 mg/kg/day oral): decreased | mRNA levels of DGAT2 in liver (DGAT2; TT 40 mg/kg/day oral): decreased | ballooning of hepatocyte (liver histology) ([1]; TT 10 mg/kg/day oral): no ballooning phenomenon | average area of adipocytes in epididymal WAT ([1]; TT 20 mg/kg/day oral): 5379.9±187.2 μm^2 | ballooning of hepatocyte (liver histology) ([1]; TT 20 mg/kg/day oral): no ballooning phenomenon | average area of adipocytes in epididymal WAT ([1]; TT 40 mg/kg/day oral): 4910.5±104.9 μm^2 | ballooning of hepatocyte (liver histology) ([1]; TT 40 mg/kg/day oral): no ballooning phenomenon | CPT1a mRNA levels in liver (CPT1a): enhanced | expression levels of PPARγ in adipose tissue (PPARγ; TT 10 mg/kg/day oral): decreased | expression levels of PPARγ in the liver (PPARγ; TT 10 mg/kg/day oral): decreased | expression levels of PPARγ in adipose tissue (PPARγ; TT 20 mg/kg/day oral): decreased | expression levels of PPARγ in the liver (PPARγ; TT 20 mg/kg/day oral): decreased | expression levels of PPARγ in adipose tissue (PPARγ; TT 40 mg/kg/day oral): decreased | expression levels of PPARγ in the liver (PPARγ; TT 40 mg/kg/day oral): decreased | membrane expression levels of GLUT4 in skeletal muscle vs STZ group (GLUT4 [2]; TT 10 mg/kg/day oral): greater | membrane expression levels of GLUT4 in skeletal muscle vs STZ group (GLUT4 [2]; TT 20 mg/kg/day oral): greater | membrane expression levels of GLUT4 in skeletal muscle vs STZ group (GLUT4 [2]; TT 40 mg/kg/day oral): greater | mRNA levels of SREBP1c in liver (SREBP1c; TT 10 mg/kg/day oral): decreased | mRNA levels of SREBP1c in liver (SREBP1c; TT 20 mg/kg/day oral): decreased | mRNA levels of SREBP1c in liver (SREBP1c; TT 40 mg/kg/day oral): decreased | mRNA level of PPARα in liver (PPARα [3]; TT 10 mg/kg/day oral): increased | mRNA level of PPARα in liver (PPARα [3]; TT 20 mg/kg/day oral): increased | mRNA level of PPARα in liver (PPARα [3]; TT 40 mg/kg/day oral): increased | expression levels of PPARα in the liver (PPARα [4]; TT 10 mg/kg/day oral): increased | expression levels of PPARα in the liver (PPARα [4]; TT 20 mg/kg/day oral): increased | expression levels of PPARα in the liver (PPARα [4]; TT 40 mg/kg/day oral): increased | Tissue weight: BAT ([5]; TT 10 mg/kg/day oral): 0.296 ± 0.012 wt % | Tissue weight: EWAT ([5]; TT 10 mg/kg/day oral): 0.778 ± 0.063 wt % | Tissue weight: MWAT ([5]; TT 10 mg/kg/day oral): 0.562 ± 0.114 wt % | Tissue weight: RWAT ([5]; TT 10 mg/kg/day oral): 0.122 ± 0.029 wt % | Tissue weight: Visceral fat ([5]; TT 10 mg/kg/day oral): 0.900 ± 0.082 wt % | Tissue weight: BAT ([5]; TT 20 mg/kg/day oral): 0.323 ± 0.026 wt % | Tissue weight: EWAT ([5]; TT 20 mg/kg/day oral): 0.783 ± 0.087 wt % | Tissue weight: MWAT ([5]; TT 20 mg/kg/day oral): 0.709 ± 0.111 wt % | Tissue weight: RWAT ([5]; TT 20 mg/kg/day oral): 0.161 ± 0.031 wt % | Tissue weight: Visceral fat ([5]; TT 20 mg/kg/day oral): 0.944 ± 0.115 wt % | Tissue weight: EWAT ([5]; TT 40 mg/kg/day oral): 0.715 ± 0.068 wt % | Tissue weight: MWAT ([5]; TT 40 mg/kg/day oral): 0.720 ± 0.114 wt % | Tissue weight: RWAT ([5]; TT 40 mg/kg/day oral): 0.119 ± 0.014 wt % | Tissue weight: Visceral fat ([5]; TT 40 mg/kg/day oral): 0.834 ± 0.082 wt % | levels of phospho-Akt (Ser473)/total Akt proteins vs CON group (Akt; TT 10 μg/mL, 30 min): higher | levels of phospho-Akt (Ser473)/total Akt proteins vs CON group (Akt; TT 25 μg/mL, 30 min): higher | protein expressions of GLUT4 vs CON group (GLUT4 [6]; TT 1 μg/mL, 30 min): higher | protein expressions of GLUT4 vs CON group (GLUT4 [6]; TT 5 μg/mL, 30 min): higher | protein expressions of GLUT4 vs CON group (GLUT4 [6]; TT 10 μg/mL, 30 min): higher | protein expressions of GLUT4 vs CON group (GLUT4 [6]; TT 25 μg/mL, 30 min): higher | mRNA levels of PEPCK in liver (PEPCK; TT 10 mg/kg/day oral): decreased | mRNA levels of PEPCK in liver (PEPCK; TT 20 mg/kg/day oral): decreased | mRNA levels of PEPCK in liver (PEPCK; TT 40 mg/kg/day oral): decreased | expression levels of phospho-AMPK/total AMPK in skeletal muscle (AMPK; TT 10 mg/kg/day oral): increased | muscular expression levels of phospho-AMPK/total AMPK compared with the STZ group (second sentence) (AMPK; TT 10 mg/kg/day oral): increased | expression levels of phospho-AMPK/total AMPK in skeletal muscle (AMPK; TT 20 mg/kg/day oral): increased | muscular expression levels of phospho-AMPK/total AMPK compared with the STZ group (second sentence) (AMPK; TT 20 mg/kg/day oral): increased | expression levels of phospho-AMPK/total AMPK in skeletal muscle (AMPK; TT 40 mg/kg/day oral): increased | muscular expression levels of phospho-AMPK/total AMPK compared with the STZ group (second sentence) (AMPK; TT 40 mg/kg/day oral): increased | mRNA levels of G6 Pase in liver (G6 Pase; TT 10 mg/kg/day oral): decreased | mRNA levels of G6 Pase in liver (G6 Pase; TT 20 mg/kg/day oral): decreased | mRNA levels of G6 Pase in liver (G6 Pase; TT 40 mg/kg/day oral): decreased | expression levels of FAS in adipose tissue (FAS; TT 10 mg/kg/day oral): decreased | expression levels of FAS in the liver (FAS; TT 10 mg/kg/day oral): decreased | expression levels of FAS in adipose tissue (FAS; TT 20 mg/kg/day oral): decreased | expression levels of FAS in the liver (FAS; TT 20 mg/kg/day oral): decreased | expression levels of FAS in adipose tissue (FAS; TT 40 mg/kg/day oral): decreased | expression levels of FAS in the liver (FAS; TT 40 mg/kg/day oral): decreased

insulin [reference compound]
levels of phospho-Akt (Ser473)/total Akt proteins vs CON group (Akt; 100 nM insulin, 25 min): higher | protein expressions of GLUT4 vs CON group (GLUT4 [6]; 100 nM insulin, 25 min): higher
